Source: US7396844B1, “Benzamidine derivatives” (Ajinomoto Co., Inc., priority 1997, dated 2008)
Structures can show the parent of a compound that is named as a salt. Where two headings read alike, the source gives them in different places.

Tests used:
[1] = molecular target: T1, activated human blood coagulation factor X (Homo sapiens, UniProt P00742); assay: Determination of activity of inhibiting the activated blood coagulation factor X; assay type: biochemical; details: for IC50: read-out: Activity of inhibiting activated blood coagulation factor X (pIC50) (converted)
T1 construct: purchased Enzyme Research Co
Method: 130 μl of 100 mM Tris-HCl buffer adjusted to pH 8.4 was added to 10 μl of an aqueous solution of a compound to be tested. Then 10 μl of a 0.5 unit/ml solution of activated human blood coagulation factor X (a product of Enzyme Research Co.) in Tris-HCl buffer hydrochloride of pH 8.4 was added to the resultant mixture. After the incubation at room temperature for 10 minutes, 50 μl of a solution of N-benzoyl-L-isoleucyl-L-glutamyl-glycyl-L-arginyl-p-nitroanilide hydrochloride (a product of Peptide Institute, Inc.) adjusted to 0.8 mM with Tris-HCl buffer (pH 8.4) was added thereto. The absorbance was determined and then the initial reaction rate was determined. A control was prepared in the same manner as that described above except that the solution of the compound to be tested was replaced with 10 μl of Tris-HCl buffer adjusted to pH 8.4.

human thrombin = molecular target: T2, human thrombin (Homo sapiens, UniProt P00734); assay: Determination of thrombin-inhibiting activity; assay type: biochemical
T2 construct: human thrombin (a product of SIGMA Co.); purchased SIGMA Co
Method: 130 μl of 100 mM Tris-HCl buffer adjusted to pH 8.4 was added to 10 μl of an aqueous solution of a test compound. Then 10 μl of a solution of human thrombin (a product of SIGMA Co.) adjusted to 2 units/ml with Tris-HCl buffer of pH 8.4 was added to the resultant mixture. […] The absorbance was determined and then the initial reaction rate was determined. A control was prepared in the same manner as that described above except that the solution of the compound to be tested was replaced with 10 μl of tris hydrochloride buffer adjusted to pH 8.4.

blood plasma = assay: Determination of blood anticoagulating activity by prothrombin time (PT); assay type: biochemical, human; parameters: key: -log of concentration doubling control PT
Method: The blood anticoagulating activity was determined by a prothrombin time (PT) determination method. The PT was determined as follows: The blood was taken from healthy people. […] The blood plasma was separated by the centrifugation. 5 μl of DMSO solution containing a test compound was added to 45 μl of the blood plasma. After the incubation at room temperature for 2 minutes, a test tube containing the blood plasma solution was placed in Sysmex CA-3000 fully automatic blood coagulation determination device (a product of Toa Medical Electronics Co., Ltd), and incubated at 37° C. for 3 minutes. […] PT was automatically determined with the device. A sample containing 5 μl of DMSO in place of the solution of the test compound was used as the control. The negative logarithm (PT2) of the concentration of the test compound which elongated PT of the control to the twice as long was determined, and employed as the index of the blood anticoagulating activity.

[2] = Table 2, same manner as Example 93
[3] = Table 2, same manner as Example 94, read-out: Thrombin-inhibiting activity (pIC50) (converted)
[4] = Table 2, negative logarithm of concentration that elongated PT of the control to twice as long, plasma of healthy people
[5] = Table 3, same manner as Example 93
[6] = Table 3, same manner as Example 94, read-out: Thrombin inhibiting activity (pIC50) (converted)
[7] = Table 3, same manner as Example 184, negative logarithm of concentration doubling PT
[8] = Table 1, negative logarithm of concentration inhibiting 50% of initial rate, Tris-HCl pH 8.4, room temperature
[9] = Table 1, negative logarithm of concentration inhibiting 50% of initial rate, substrate S-2238, Tris-HCl pH 8.4, read-out: Thrombin-inhibiting activity (pIC50) (converted)
[10] = Table 1, negative logarithm of concentration inhibiting 50% of initial rate, substrate S-2238, Tris-HCl pH 8.4

T1 sequence (P00742 235-488 limits assumed): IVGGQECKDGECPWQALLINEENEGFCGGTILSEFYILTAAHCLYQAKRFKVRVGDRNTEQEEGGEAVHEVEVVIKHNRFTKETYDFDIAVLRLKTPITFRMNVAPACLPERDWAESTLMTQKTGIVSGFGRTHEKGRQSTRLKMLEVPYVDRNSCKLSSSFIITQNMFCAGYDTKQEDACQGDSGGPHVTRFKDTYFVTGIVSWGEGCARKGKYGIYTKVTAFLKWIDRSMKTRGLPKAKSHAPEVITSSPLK
T1 sequence (P00742 41-179 partner limits assumed): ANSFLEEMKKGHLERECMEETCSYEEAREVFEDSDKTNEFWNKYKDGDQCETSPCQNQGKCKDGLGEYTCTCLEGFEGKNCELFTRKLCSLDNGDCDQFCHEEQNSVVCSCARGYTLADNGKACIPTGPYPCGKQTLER

N=C(N)c1ccc(C(=O)N[C@@H](COc2cccc(C(=N)N)c2)Cc2ccccc2)cc1.O=C(O)C(F)(F)F.O=C(O)C(F)(F)F [Compound of Ex. 117, N-[(1R)-2-(3-amidinophenoxy)-1-benzylethyl]-4-amidinobenzamide bistrifluoroacetate]
IC50 [1, 2]: 39.8 nM
IC50 (human thrombin; [3]): 251 µM
Blood anticoagulating activity (PT2) (blood plasma; [4]): 6.7

CC(=N)N1CCC(Oc2ccc(C[C@@H](COc3cccc(C(=N)N)c3)NS(=O)(=O)c3ccc(/C=C/C(=O)O)cc3)cc2)CC1.O=C(O)C(F)(F)F.O=C(O)C(F)(F)F [Compound of Ex. 171, (2E)-3-[4-[(2S)-1-[4-(1-acetimidoyl-4-piperidyloxy)phenyl]-3-(3-amidinophenoxy)-2-propylsulfamoyl]phenyl]acrylic acid bistrifluoroacetate]
IC50 [1, 2]: 100 nM
IC50 (human thrombin; [3]): 39.8 µM
Blood anticoagulating activity (PT2) (blood plasma; [4]): 6

N=C(N)c1ccc(CC(=O)C(=O)O)c(OC[C@H](Cc2ccc(OC3CCNCC3)cc2)NS(=O)(=O)c2ccccc2)c1.O=C(O)C(F)(F)F.O=C(O)C(F)(F)F [Compound of Ex. 180, 3-[4-amidino-2-[(2S)-2-(benzenesulfonylamino)-3-[4-(4-piperidyloxy)phenyl]propoxy]phenyl]-2-oxopropionic acid bistrifluoroacetate]
IC50 [1, 2]: 158 nM
IC50 (human thrombin; [3]): 3.16 µM
Blood anticoagulating activity (PT2) (blood plasma; [4]): 5.7

N=C(N)c1cccc(OC[C@H](Cc2ccc(OC3CCNCC3)cc2)NS(=O)(=O)c2ccccc2)c1.O=C(O)C(F)(F)F.O=C(O)C(F)(F)F [Compound of Ex. 154, 3-[(2S)-2-(benzenesulfonylamino)-3-[4-(4-piperidyloxy)phenyl]propoxy]benzamidine bistrifluoroacetate]
IC50 [1, 2]: 1580 nM
IC50 (human thrombin; [3]): 79.4 µM
Blood anticoagulating activity (PT2) (blood plasma; [4]): 5.1

N=C(N)c1ccc(CC(=O)C(=O)O)c(OC[C@@H](CC(=O)O)NC(=O)c2ccc(S(=O)(=O)N3CCCC3)cc2)c1.O=C(O)C(F)(F)F [Compound of Ex. 195, (3R)-4-[5-amidino-2-(2-carboxy-2-oxoethyl)phenoxy]-3-[4-(pyrrolidine-1-sulfonyl)benzoylamino]butanoic acid trifluoroacetate]
IC50 [1, 5]: 31.6 nM
IC50 (human thrombin; [6]): 31.6 µM
Blood anticoagulating activity (PT2) (blood plasma; [7]): 5.9

CC(=N)N1CCC(Oc2ccc(C(=O)NCCOc3cccc(C(=N)N)c3)cc2)CC1.O=C(O)C(F)(F)F.O=C(O)C(F)(F)F [Compound of Ex. 99, N-[2-(3-amidinophenoxy)ethyl]-4-(1-acetimidoyl-4-piperidyloxy)benzamide bistrifluoroacetate]
IC50 [1, 2]: 251 nM
IC50 (human thrombin; [3]): 316 µM
Blood anticoagulating activity (PT2) (blood plasma; [4]): 6.2

N=C(N)c1ccc(CC(=O)C(=O)O)c(OC[C@@H](CC(=O)O)NC(=O)c2ccc(C(=O)N3CCCC3)cc2)c1.O=C(O)C(F)(F)F [Compound of Ex. 191, (3R)-4-[5-amidino-2-(2-carboxy-2-oxoethyl)phenoxy]-3-[4-(pyrrolidine-1-carbonyl)benzoylamino]butanoic acid trifluoroacetate]
IC50 [1, 5]: 3.98 nM
IC50 (human thrombin; [6]): 200 µM
Blood anticoagulating activity (PT2) (blood plasma; [7]): 6.0

CC(=N)N1CCC(Oc2ccc(C[C@@H](CCc3cccc(C(=N)N)c3)NS(=O)(=O)c3ccccc3)cc2)CC1.O=C(O)C(F)(F)F.O=C(O)C(F)(F)F [Compound of Ex. 175, 3-[(3R)-3-(benzenesulfonylamino)-4-[4-(1-acetimidoyl-4-piperidyloxy)phenyl]butyl]benzamidine bistrifluoroacetate]
IC50 [1, 2]: 251 nM
IC50 (human thrombin; [3]): 63.1 µM
Blood anticoagulating activity (PT2) (blood plasma; [4]): 5.9

N=C(N)c1ccc(C(=O)NCCSc2cccc(C(=N)N)c2)cc1.O=C(O)C(F)(F)F.O=C(O)C(F)(F)F [Compound of Ex. 143, N-[2-(3-amidinophenylthio)ethyl]-4-amidinobenzamide bistrifluoroacetate]
IC50 [1, 2]: 501 nM
Blood anticoagulating activity (PT2) (blood plasma; [4]): 5.3

CC(=N)N1CCC(Cc2ccc(C[C@@H](COc3cccc(C(=N)N)c3)NS(=O)(=O)c3ccccc3)cc2)CC1.O=C(O)C(F)(F)F.O=C(O)C(F)(F)F [Compound of Ex. 165, 3-[(2S)-2-(benzenesulfonylamino)-3-[4-[(1-acetimidoyl-4-piperidyl)methyl]phenyl]propoxy]benzamidine bistrifluoroacetate]
IC50 [1, 2]: 200 nM
IC50 (human thrombin; [3]): 100 µM
Blood anticoagulating activity (PT2) (blood plasma; [4]): 6

N=C(N)c1ccc(C(=O)NCCCc2cccc(C(=N)N)c2)cc1.O=C(O)C(F)(F)F.O=C(O)C(F)(F)F [Compound of Ex. 144, N-[3-(3-amidinophenyl)propyl]-4-amidinobenzamide bistrifluoroacetate]
IC50 [1, 2]: 1580 nM
Blood anticoagulating activity (PT2) (blood plasma; [4]): 5

N=C(N)c1ccc(CC(=O)C(=O)O)c(OCCNC(=O)c2ccc(N3CCCC3)cc2)c1 [Compound of Ex. 82, 3-[4-amidino-2-[2-[4-(pyrrolidine-1-yl)benzoylamino]ethoxy]phenyl]-2-oxopropionic acid trifluoroacetate]
IC50 [1, 8]: 25.1 nM
IC50 (human thrombin; [9]): 6.31 µM

N-[2-(3-amidinophenoxy)ethyl]-1-(4-pyridyl)piperidine-4-carboxyamide bistrifluoroacetate [Compound of Ex. 24]
Activity of inhibiting activated blood coagulation factor X (pIC50) [1, 8]: 6.5
Thrombin-inhibiting activity (pIC50) (human thrombin; [10]): 3.2

N=C(N)c1ccc(C(=O)NCCOc2cccc(C(=N)N)c2)cc1.O=C(O)C(F)(F)F.O=C(O)C(F)(F)F [Compound of Ex. 95, N-[2-(3-amidinophenoxy)ethyl]-4-amidinobenzamide bistrifluoroacetate]
IC50 [1, 2]: 316 nM
Blood anticoagulating activity (PT2) (blood plasma; [4]): 5.9

CC(=N)N1CCC(Oc2ccc(C(=O)N[C@@H](COc3cccc(C(=N)N)c3)CC(=O)O)cc2)CC1.O=C(O)C(F)(F)F.O=C(O)C(F)(F)F [Compound of Ex. 62, (3R)-4-(3-amidinophenoxy)-3-[4-(1-acetimidoyl-4-piperidyloxy)benzoylamino]butylic acid bistrifluoroacetate]
Activity of inhibiting activated blood coagulation factor X (pIC50) [1, 8]: 7.4
Thrombin-inhibiting activity (pIC50) (human thrombin; [10]): <3.3

N=C(N)c1cccc(OCCNC(=O)c2ccc(/C=C/c3ccncc3)cc2)c1 [Compound of Ex. 10, N-[2-(3-amidinophenoxy)ethyl]-4-[(E)-2-(pyridine-4-yl)vinyl]benzamide bistrifluoroacetate]
IC50 [1, 8]: 100 nM
IC50 (human thrombin; [9]): 126 µM

N=C(N)c1ccc(C(=O)N[C@@H](COc2cccc(C(=N)N)c2)Cc2ccc(C(=O)O)cc2)cc1 [Compound of Ex. 90, 4-[(2R)-2-(4-amidinobenzoylamino)-3-(3-amidinophenoxy)propyl]benzoic acid bistrifluoroacetate]
IC50 [1, 8]: 39.8 nM
IC50 (human thrombin; [9]): > 251 µM

CC(=N)N1CCC(Oc2ccc(C[C@@H](COc3cccc(C(=N)N)c3)NS(=O)(=O)c3ccc4ccccc4c3)cc2)CC1 [Compound of Ex. 162, 3-[(2S)-2-(2-naphthalenesulfonylamino)-3-[4-(1-acetimidoyl-4-piperidyloxy)phenyl]propoxy]benzamidine bistrifluoroacetate]
IC50 [1, 2]: 251 nM
IC50 (human thrombin; [3]): 39.8 µM

N=C(N)c1cccc(OCCNC(=O)c2cccc(C(=N)N)c2)c1 [Compound of Ex. 96, N-[2-(3-amidinophenoxy)ethyl]-3-amidinobenzamide bistrifluoroacetate]
IC50 [1, 2]: 1580 nM
IC50 (human thrombin; [3]): > 1000 µM

N=C(N)c1cccc(OCCNC(=O)c2ccc(N3CCCC3)cc2)c1 [Compound of Ex. 18, N-[2-(3-amidinophenoxy)ethyl]-4-(pyrrolidine-1-yl)benzamide trifluoroacetate]
IC50 [1, 8]: 50.1 nM
IC50 (human thrombin; [9]): 39.8 µM
